Values of other authors, collected in publication PMC11734723 (Science Advances, 2025).

Assays:
[1] = system: RANKL-induced osteoclast differentiation; conditions: cited from earlier work
Orai channels = conditions: cited from earlier work
[2] = system: collagen-induced arthritis (CIA) mouse model; conditions: administered beginning at the time of arthritis induction; cited from earlier work

SMILES: CCC(=O)Nc1ccc(Cl)c(Cl)c1 [3,4-dichloropropionanilide]
- inhibition of RANKL-induced osteoclastogenesis ([1]; 100 nM): failed to inhibit
- formation of bone-degrading osteoclasts ([1]; in vitro): reduced
- concentration needed to block RANKL-induced osteoclast differentiation ([1]; in vitro, not blocked at concentrations below this): ≥ 10 µM
- effect on Orai channels (Orai channels): inhibits
- effect on arthritis [2]: reduces arthritis
